Data reported in publication PMC12612973, “Inhibition of Human Amylin Aggregation: In Silico and In Vitro Studies” (ACS Omega, 2025).
“And” between values parts separate entries of the source, which are not always exact repeats. Equal values may be shown once.

Tests used:
[1] = biological target: T1, human amylin (hIAPP) (Homo sapiens, UniProt P10997); assay: Thioflavin T (ThT) fluorescence assay of amylin aggregation; type: biochemical; conditions: for ThT inhibition % (mean ± SEM): compound 10 μM, amylin 15 μM, 36 h incubation, 3 trials; for inhibition at 10 µM: read-out: ThT inhibition % (mean ± SEM), compound 10 μM, amylin 15 μM, 36 h incubation, 3 trials
T1 construct: purchased Bachem USA
T1 sequence (P10997 34-70 limits assumed): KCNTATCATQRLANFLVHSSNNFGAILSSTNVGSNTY
Experimental: (§1) A stock solution of amylin (1 mM) (purchased from Bachem USA), peptide sequence: […] amide (with disulfide bond between Cys2 and Cys7), was prepared in 100% hexafluoroisopropyl alcohol (HFIP) (purchased from Sigma-Aldrich) and stored at −20 °C. , Aliquots of amylin peptide were filtered through a 0.22 μm filter from the stock solution and freeze-dried. For kinetic experiments, 15 μM of amylin was prepared in 50 mM Tris-HCl buffer (pH 7.4), as investigated in previous studies by Chaari et al., , Samples of amylin were prepared in the presence or absence of inhibitors. Each compound was dissolved in DMSO and further diluted with the buffer used to solubilize the amylin. The final mixture contained 15 μM amylin, 10 μM of the test compound, 2% DMSO or 15 μM amylin, and 2% DMSO without the compound (negative control). Also 15 μM amylin, 10 μM of oleuropein aglycone and 2% DMSO was used as a positive control. The prepared solutions were incubated under physiological conditions (pH 7.4 and 37 °C) for amylin aggregation. Samples were incubated for 36 h to test for amylin aggregation, and measurements were conducted at different time points.
Amylin aggregation was monitored by characteristic changes in Thioflavin T (ThT) fluorescence intensity. A ThT stock solution (15 μM) was prepared in deionized water at pH 7.4. The amylin samples were mixed with the ThT solution and allowed to incubate. ThT fluorescence was measured using the PerkinElmer model LS 55 fluorescence spectrophotometer (PerkinElmer, USA), with an excitation wavelength of 440 nm and an emission wavelength of 480 nm. ,− The emission and excitation slits were set to 5 nm, and a 1 cm cuvette was used for all experiments. Nonspecific background fluorescence was subtracted from the samples using appropriate blanks in the absence of proteins. Each experiment was performed in triplicate.

[2] = tested on: Aβ; design: method as in Panek et al.; conditions: based on ThT assay results; ref Panek et al.; read-out: IC50 of Aβ aggregation inhibition; cited from earlier work
[3] = tested on: Pancreatic INS-1E cells; assay: MTT cytotoxicity assay of amylin aggregates aged with or without inhibitors; type: cell-based; conditions: for effect on INS-1E cell viability in presence of amylin: INS-1E cells cultured with the MTDLs
Experimental: In this study, we utilized Pancreatic INS-1E cells (Department of Cell Physiology and Metabolism, University Medical Center, Switzerland) due to their close physiological similarity to native β-cells, making them highly relevant to our experimental objectives. Pancreatic INS-1E cells were grown in RPMI 1640 medium, supplemented with 2 mM glutamine, 5% fetal calf serum, 10 mM HEPES (pH 7.4), 1 mM sodium pyruvate, 50 μM 2-mercaptoethanol, 100 units/mL penicillin, and 0.1 mg/mL streptomycin. The culturing environment was maintained at 37 °C, 5% CO2, pH 7.4.
The toxicity of human amylin aggregates in the presence or absence of different compounds in the presence of 2% DMSO was assessed by the 3-(4,5-dimethylthiazol-2-yl)-2,5-diphenyltetrazolium bromide (MTT) reduction assay. The cells were cultured and then seeded into 96-well plates and grown for 24 h prior to exposure to different intermediates of amylin or a mixture of amylin with the MTDLs. The final amylin concentration within the culture medium was 5 μM. Cell viability was expressed as the percentage of MTT reduction, using cells treated with the same buffer volume as a reference (100% MTT reduction). The values (averages ± S.D.) were obtained from three independent experiments.

[4] = biological target: T1, human amylin (hIAPP); assay: Dynamic light scattering (DLS) assay of amylin aggregation; type: biochemical; conditions: compound 10 μM, amylin 15 μM, 36 h incubation, 3 trials; read-out: DLS inhibition % (mean ± SEM)
Experimental: as §1
DLS (Zetasizer, Malvern) was used at a wavelength of 633 nm to measure the average diffusion coefficient distribution of amylin particles and the aggregation percentage. Samples were diluted 10-fold, and 50 μL was placed into a 96-well plate. The total light scattering intensity at a 90° angle was collected using a 10 s averaging acquisition time. Particle translational diffusion coefficients were calculated from autocorrelated light intensity data (usually 30–40 points) and converted to the hydrodynamic radius (R h) using the Stokes–Einstein equation. A distribution plot of intensity versus R h was calculated using the Sedfit 9.3 analysis software, and intensity-weighted mean R h values were obtained from each peak.

[5] = biological target: T1, human amylin (hIAPP); assay: Kinetic analysis of amylin aggregation (ThT, two-step autocatalytic aggregation model); type: biochemical; conditions: mean ± S.D.; for t 0 (time point when the aggregation starts): 10% of highest ThT fluorescence; for t 1/2 (aggregation halftime): 50% of highest ThT fluorescence; for t 1 (aggregation endpoint): 90% of highest ThT fluorescence; for k / k e (elongation constant) / k n (nucleation constant) / ρ (ratio of kn to k): ThT data, autocatalytic aggregation model
Experimental: Kinetic analysis was performed according to the model of autocatalytic aggregation. According to Sabaté et al., aggregation is a two-step process, comprising nucleation (described by the k n constant) and fibrillation phases (represented by the k e constant). Two constants (k n and k e) are calculated using the eq : 5 f=ρ{e^[(1+ρ)kt]−1}/{1+ρe^[(1+ρ)kt]} where k = k e a (where a represents the initial concentration of the aggregating peptide), f stands for a fraction of the fibrillar form in the system, and ρ denotes the dimensionless ratio of k n to k. The parameters k and ρ were calculated first, then k n and k e.
Data were normalized as a fraction of the highest fluorescence from the three trials and fitted into the model of autocatalytic aggregation. The same procedure was repeated for the remaining trials. The second calculation aimed to find the time parameters of the aggregation process: t 0 (time point when the aggregation starts), t 1/2 (aggregation halftime), and t 1 (aggregation endpoint). t 0, t 1/2, and t 1 were calculated as 10%, 50%, and 90% of the highest fluorescence measurements from the three trials, respectively. All calculations were performed using GraphPad Prism 9.5.1, Statistica 13.3.721.1, and Microsoft Excel 2304.

Structure (SMILES) | ThT inhibition % (mean ± SEM) [1] | inhibition at 10 µM [1] | IC50 [2] | cell viability difference versus the sample with amylin fibrils ([3]; INS-1E cells 24 h, amylin aggregates aged 36 h with 2.92 μM compound 18 or 3.31 μM compound 21) | effect on INS-1E cell viability in presence of amylin [3] | inhibition at 10 µM [4] | t 0 (time point when the aggregation starts) [5] | t 1/2 (aggregation halftime) [5] | t 1 (aggregation endpoint) [5] | k [5] | k e (elongation constant) [5] | k n (nucleation constant) [5] | ρ (ratio of kn to k) [5] | cell viability difference versus oleuropein aglycone ([3]; INS-1E cells 24 h, amylin aggregates aged 36 h with compound) | cell viability (MTT reduction) ([3]; INS-1E cells 24 h with amylin aggregates aged 36 h in presence of compound (2.61 μM of compound 22)) | cell viability higher than that of the control ([3]; cytotoxicity assay, discussion statement)
CC(C)(C)c1cccc(CNCC(O)CNCCC(c2ccccc2)c2ccccc2)c1 (stereo not shown) [Compound 18] | 91.5 ± 0.4% | > 88% | 3.09 µM | approximately 30 % points | retained cell viability | 99.2 ± 6.5% | 9.31 ± 0.72 h | 19.02 ± 0.57 h | 29.29 ± 0.36 h | 0.2087 ± 0.0084 h^–1 | 13913 M^–1h^–1 and 13913 ± 560 M^–1h^–1 | 0.004 h^–1 and 0.0039 ± 0.0009 h^–1 | 0.0186 ± 0.0051 | – | – | –
CC(C)(C)c1cccc(CNCC(O)CCNCCC(c2ccccc2)c2ccccc2)c1 (stereo not shown) [Compound 22] | 89.3 ± 0.3% | > 88% | 1.22 µM | – | retained cell viability | 99.2 ± 6.8% | 4.36 ± 0.16 h | 11.87 ± 1.02 h | 20.69 ± 2.27 h | 0.2326 ± 0.0366 h^–1 | 15505 M^–1h^–1 and 15505 ± 2437 M^–1h^–1 | 0.014 h^–1 and 0.0142 ± 0.0006 h^–1 | 0.0624 ± 0.0126 | around 8 % points | ~93% | ~40%
